Experimental data published in patent US10317393B2, “Alkynyl sugar analogs for labeling and visualization of glycoconjugates in cells” (Academia Sinica, priority 2007, dated 2019).

How the values were obtained:
Assay type in all cases: cell-based, human
MCF-7 cells = test: Confocal microscopy of fluorescently labeled glycoconjugates; settings: 200 micromolar Fuc or 25 micromolar ManNAc analogs, 3 days; probe 6 or 7
Method: (§1) One exemplary implementation of the disclosure provides a method to visualize the localization of glycoconjugates using alkynyl sugar tagging. To visualize the localization of glycoconjugates tagged with alkynyl sugars, adherent cells are grown on slides in the presence or absence of derivatized alkynyl sugars. After a 3-day-incubation, cells attached to the slides are fixed, permeabilized, and labeled with either biotin probe 6 or fluorogenic probe 7 for fluorescent signal analysis with confocal microscopy (FIGS. 4, 5, 10A, 10B and 11). For comparison, samples are also stained with wheat germ agglutinin (WGA, a Golgi marker) and Hoechst 33342 (marker for cell nuclei).
(§2) Human hepatocellular carcinoma cells (Hep3B) or breast adenocarcinoma cells (MCF-7) were seeded onto six-well plates (3×10^5/2 ml per well) containing glass coverslips, and were cultivated in 10% FCS/DMEM or 10% FCS/RPMI medium 1640. […]

Hep3B cells = test: as above; settings: 200 micromolar Fuc or 25 micromolar ManNAc analogs, 3 days; probe 6 or 7
Method: as §1, §2

Jurkat cells = test: Flow cytometry of cell surface labeling after click with biotin azide probe 6 and fluorescein-conjugated streptavidin
Method: In another exemplary implementation, a method for labeling fucosylated glycoconjugates at the cell surface is disclosed. In one aspect, Jurkat cells are grown in the presence of derivatized alkynyl Fuc 1. After treatment, cells are subjected to CuAAC (click chemistry) to couple biotinylated azido probe 6 with any alkynyl Fuc-bearing glycoconjugates, and stained with fluorescein-conjugated streptavidin.
Labeling alkynyl Fuc-bearing cell surface glycoconjugates is illustrated in FIGS. 1A, 1B, 1C and 1D. FIGS. 1A, 1B, 1C and 1D show analysis of cells tagged with Fuc analogs analyzed by monitoring fluorescence intensity with flow cytometry after labeling with a biotin azide probe 6 and staining cells with fluorescein-conjugated streptavidin. […] Without being bound by theory, incorporation of the derivatized Fuc analogs into fucosylated glycoconjugates likely occurs via the Fuc salvage pathway.
It is now disclosed in one exemplary implementation of the disclosure that treating cells with derivatized alkynyl ManNAc 4 results in derivatized alkyne-bearing sialyl glycoconjugates. In one aspect of the method, cells are treated with 4 at various concentrations for one to 3 days. Modified sugar analogs and probes used in this disclosure are shown in Scheme 1. Tagging of the cell surface glycoconjugates by derivatized alkynyl ManNAc is illustrated in FIGS. 2A, 2B, 2C and 2D. FIGS. 2A, 2B, 2C and 2D show analysis of cells labeled with ManNAc analogs analyzed by monitoring fluorescence intensity with flow cytometry after clicking on the biotin azide probe 6 and staining cells with fluorescein-conjugated streptavidin. […] Compared with the MFI of controls, there was significant labeling on cells treated with derivatized alkynyl ManNAc 4, even at concentrations as low as 3 micromolar (15-fold increase). […] The optimal concentration of 4 for tagging sialyl glycoconjugates falls between 25 and 50 micromolar.
Jurkat cells were cultivated (2×10^6/10 ml) in RPMI medium 1640 supplemented with 10% FCS and various concentrations of peracetylated alkynyl sugars 1, 2, or 4 or native sugars 3 or 5, for 1-3 days at 37° C. Cells were then harvested, washed with 0.1% FCS/PBS, and resuspended (10^6 cells) in 100 microliters of click reaction solution (0.1 mM biotin probe 6 or fluorogenic probe 7/0.1 mM Tris-thiazoleamine catalyst/0.1 mM CuSO4/0.5 mM sodium ascorbate, in PBS). The reaction was incubated at room temperature for 30 min, and then the cells were washed twice with 0.1% FCS/PBS. Cells treated with biotin probe 6 were subsequently stained with fluorescein-conjugated streptavidin (0.5 microgram per sample in 50 microliters of 1% FCS/PBS) for 30 min at 4° C., and washed three times with 1% FCS/PBS. Data were acquired by BD LSR II with FACSDiva software, and were analyzed by CellQuestPro software (BD Biosciences). Detection of fluorescent adduct with probe 7 was monitored with a 408 nm laser and a 440/40 bandpass filter for excitation and emission, respectively.

Substance: 1,2,3,4-tetraacetyl alkynyl fucose [alkynyl Fuc 1]
- labeling signal by confocal microscopy (MCF-7 cells): strong punctate-labeling signal
- labeling signal by confocal microscopy (Hep3B cells): strong punctate-labeling signal
- saturation of incorporation, incubation time (Jurkat cells; 200 micromolar): one
- mean fluorescence intensity (MFI) compared with Fuc treated cells (Jurkat cells; 200 micromolar, biotin probe 6/fluorescein-streptavidin): 3 fold
- dose dependency of glycan tagging (Jurkat cells; 3 days): dose dependent increase of fluorescence signal
- fluorescence intensity / cell surface signal compared with control sugar-treated cells (Jurkat cells; biotin probe 6/fluorescein-streptavidin): increased fluorescence intensity
